The values below come from patent publication US7247643B2, “8-aza-bicyclo (3.2.1) octane derivatives and their use as monoamine neurotransmitter re-uptake inhibitors” (NeuroSearch A/S, priority 2003, dated 2007).

pIC50: −log10 of the molar value. Structures can show the parent of a compound that is named as a salt.

A word on the melting point: it is the temperature, or range, at which the solid turns liquid. One may read the pIC50 as the negative decadic logarithm of the IC50, by convention in mol/L. Lower therefore signals a high IC50.

In series [1] the target is T1, 5-HT-uptake (reuptake of serotonin in synaptosomes) (Rattus norvegicus, UniProt P31652).
T1 construct: In synaptosomes as described in WO 97/16451; from tissue
As to the kind of experiment: Inhibition of serotonin (5-HT) reuptake in synaptosomes. Type of series: biochemical. Here is the method:
(§1) A number of compounds were tested for their ability to inhibit the reuptake of the monoamine neurotransmitters dopamine (DA) noradrenaline(NA) and serotonin (5-HT) In synaptosomes as described in WO 97/16451.
(§2) The test values are given as IC50 (the concentration (μM) of the test substance which inhibits the specific binding of ^3H-DA, ^3H-NA, or ^3H-5-HT by 50%).

Series [2] has as its target T2, NA-uptake (reuptake of noradrenaline in synaptosomes) (Rattus norvegicus, UniProt Q9WTR4).
T2 construct: In synaptosomes as described in WO 97/16451; from tissue
As to the kind of experiment: Inhibition of noradrenaline (NA) reuptake in synaptosomes. Type of series: biochemical. As for the experimental part: as §1, §2

The target of series [3] is T3, DA-uptake (reuptake of dopamine in synaptosomes) (Rattus norvegicus, UniProt P23977).
T3 construct: In synaptosomes as described in WO 97/16451; from tissue
Nature of the series: Inhibition of dopamine (DA) reuptake in synaptosomes. The format is biochemical. As for the experimental part: as §1, §2

T1 sequence (P31652 whole entry): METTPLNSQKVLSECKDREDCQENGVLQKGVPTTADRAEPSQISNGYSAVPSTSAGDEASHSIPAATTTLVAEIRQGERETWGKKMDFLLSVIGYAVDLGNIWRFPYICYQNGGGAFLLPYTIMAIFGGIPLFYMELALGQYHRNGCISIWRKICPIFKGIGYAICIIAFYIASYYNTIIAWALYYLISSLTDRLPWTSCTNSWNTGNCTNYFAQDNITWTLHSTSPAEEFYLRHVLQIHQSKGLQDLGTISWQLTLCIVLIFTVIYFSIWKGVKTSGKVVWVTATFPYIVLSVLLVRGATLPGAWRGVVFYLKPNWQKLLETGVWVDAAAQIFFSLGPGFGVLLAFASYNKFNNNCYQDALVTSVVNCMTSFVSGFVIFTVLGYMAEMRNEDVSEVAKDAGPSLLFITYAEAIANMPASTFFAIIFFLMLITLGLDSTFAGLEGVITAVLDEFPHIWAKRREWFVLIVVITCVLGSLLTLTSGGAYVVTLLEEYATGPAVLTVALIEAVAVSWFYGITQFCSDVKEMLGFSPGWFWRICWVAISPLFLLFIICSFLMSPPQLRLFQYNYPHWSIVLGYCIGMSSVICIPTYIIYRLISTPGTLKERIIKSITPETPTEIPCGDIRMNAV
T3 sequence (P23977 whole entry): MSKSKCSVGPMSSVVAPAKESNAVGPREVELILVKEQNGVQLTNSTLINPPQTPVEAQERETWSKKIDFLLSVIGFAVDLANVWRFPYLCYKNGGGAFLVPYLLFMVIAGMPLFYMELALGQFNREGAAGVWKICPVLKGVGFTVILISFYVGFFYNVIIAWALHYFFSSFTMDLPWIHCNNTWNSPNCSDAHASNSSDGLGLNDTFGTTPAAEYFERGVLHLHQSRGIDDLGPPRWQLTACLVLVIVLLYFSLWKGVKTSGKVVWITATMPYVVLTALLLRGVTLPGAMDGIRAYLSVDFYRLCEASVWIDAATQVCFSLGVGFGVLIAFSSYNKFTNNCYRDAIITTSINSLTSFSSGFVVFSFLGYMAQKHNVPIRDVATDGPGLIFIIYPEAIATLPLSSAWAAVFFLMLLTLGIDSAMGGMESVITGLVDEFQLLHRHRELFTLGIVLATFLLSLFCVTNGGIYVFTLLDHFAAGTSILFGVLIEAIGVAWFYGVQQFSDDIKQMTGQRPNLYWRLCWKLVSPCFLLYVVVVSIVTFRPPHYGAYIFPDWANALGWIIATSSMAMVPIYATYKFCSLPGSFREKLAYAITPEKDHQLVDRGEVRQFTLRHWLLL
T2 sequence (Q9WTR4 1-597): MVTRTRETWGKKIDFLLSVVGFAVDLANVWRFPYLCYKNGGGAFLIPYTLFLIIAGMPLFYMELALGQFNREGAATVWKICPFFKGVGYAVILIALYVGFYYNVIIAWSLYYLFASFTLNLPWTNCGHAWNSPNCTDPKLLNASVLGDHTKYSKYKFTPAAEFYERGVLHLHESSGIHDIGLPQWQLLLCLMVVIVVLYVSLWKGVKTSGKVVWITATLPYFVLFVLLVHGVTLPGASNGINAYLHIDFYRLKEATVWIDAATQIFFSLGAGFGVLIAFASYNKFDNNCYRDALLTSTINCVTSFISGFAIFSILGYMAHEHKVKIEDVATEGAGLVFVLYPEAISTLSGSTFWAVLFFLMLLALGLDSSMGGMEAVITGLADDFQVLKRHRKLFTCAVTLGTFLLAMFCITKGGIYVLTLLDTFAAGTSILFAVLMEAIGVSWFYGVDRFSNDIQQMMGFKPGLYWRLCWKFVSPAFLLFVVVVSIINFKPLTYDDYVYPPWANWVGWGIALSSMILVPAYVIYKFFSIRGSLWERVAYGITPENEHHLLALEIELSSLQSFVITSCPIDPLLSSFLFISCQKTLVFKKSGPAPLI

For `Clc1cccc(OCC2C3CCC(CC2c2cccs2)N3)c1Cl` (as salt: fumaric acid salt) [1st compound of method E, (2R,3S)-2-(2,3-Dichlorophenoxymethyl)-8-H-3-(2-thienyl)-8-aza-bicyclo[3.2.1]octane fumaric acid salt], the melting point worked out at 201.2 °C.
Regarding `c1csc(C2CC3CCC(N3)C2COc2cccc3ccccc23)c1` (as salt: fumaric acid salt) [2nd compound of method E, (2R,3S)-2-(1-Naphthyloxymethyl)-8-H-3-(2-thienyl)-8-aza-bicyclo[3.2.1]octane fumaric acid salt], the melting point was found to be 199.1 °C.
As to `CN1C2CCC1[C@H](COc1cccc(Cl)c1Cl)[C@@H](c1cccs1)C2` (stereo partly drawn) [1st compound of method D, (2R,3S)-2-(2,3-Dichlorophenoxymethyl)-8-methyl-3-(2-thienyl)-8-aza-bicyclo[3.2.1]octane fumaric acid salt], the pIC50 is 9.28 in series [1], 8.72 in series [2] and 6.52 in series [3].
On the same counts, the results for `Clc1cccc(OCC2C3CCC(CC2c2cccs2)N3)c1Cl` [1st compound of method E, (2R,3S)-2-(2,3-Dichlorophenoxymethyl)-8-H-3-(2-thienyl)-8-aza-bicyclo[3.2.1]octane fumaric acid salt] are 9.13, 8.74 and 7.13.
In turn, `CN1C2CCC1[C@H](COc1cccc3ccccc13)[C@@H](c1cccs1)C2.O=C(O)/C=C/C(=O)O` (stereo partly drawn) [2nd compound of method D, (2R,3S)-2-(1-Naphthyloxymethyl)-8-methyl-3-(2-thienyl)-8-aza-bicyclo[3.2.1]octane fumaric acid salt] displayed a melting point of 203.1 °C. The compound further showed a pIC50 in series [1] of 9.38. The compound further gave a pIC50 in series [2] of 8.44. Further, in series [3], the pIC50 is 6.44.
With `c1csc(C2CC3CCC(N3)C2COc2cccc3ccccc23)c1` [2nd compound of method E, (2R,3S)-2-(1-Naphthyloxymethyl)-8-H-3-(2-thienyl)-8-aza-bicyclo[3.2.1]octane fumaric acid salt], the pIC50 in series [1] is 9.27; in series [2], 8.80; in series [3] it was 6.72.
`CN1C2CCC1[C@H](COc1cccc(Cl)c1Cl)[C@@H](c1ccco1)C2.O=C(O)/C=C/C(=O)O` (stereo partly drawn) [5th compound of method D, (2R,3S)-2-(2,3-Dichlorophenoxymethyl)-8-methyl-3-(2-furanyl)-8-aza-bicyclo[3.2.1]octane fumaric acid salt] displayed a melting point of 156.4 to 205.9 °C. For the same compound, the pIC50 in series [1] is 9.44. Further, the negative-log IC50 (pIC50) in series [2] was 9.05. In series [3], this compound had a pIC50 of 6.51.
`CN1C2CCC1[C@H](COc1cccc3ccccc13)[C@@H](c1ccco1)C2` (stereo partly drawn) [6th compound of method D, (2R,3S)-2-(1-Naphthyloxymethyl)-8-methyl-3-(2-furanyl)-8-aza-bicyclo[3.2.1]octane fumaric acid salt]: the values for the pIC50 in series [1], in series [2] and in series [3] were 9.28, 8.52 and 6.04, respectively.
